Reference: patent US4486584A, “Demethylmacrocin compounds and derivatives thereof” (Eli Lilly and Company, priority 1982, dated 1984)
Converted amounts (≈) assume the structure as drawn.

Assays:
[1] = system: Streptomyces fradiae ATCC 31664; test: Antibiotic sensitivity, sensitivity discs on seeded agar plates; assay type: cell-based; conditions: discs: chloramphenicol, cephaloridine, tetracycline, vancomycin 30 μg, erythromycin 15 μg, lincomycin 2 μg, polymyxin B 300 units, streptomycin 10 μg; note: key: -: resistance (no zones of inhibition); +: sensitivity (zones of inhibition); trace of sensitivity
Source text: (§1) ^a Determined by using sensitivity discs padded onto seededagar

[2] = system: Streptomyces fradiae E2724.1; test: as above; assay type: cell-based; conditions: discs: chloramphenicol, cephaloridine, tetracycline, vancomycin 30 μg, erythromycin 15 μg, lincomycin 2 μg, polymyxin B 300 units, streptomycin 10 μg; note: key: -: resistance (no zones of inhibition); +: sensitivity (zones of inhibition); trace of sensitivity
Source text: as §1

[3] = system: Streptococcus pneumoniae Park I; test: Standard agar-dilution MIC assay; assay type: cell-based; conditions: DOMM free base
Source text: (§2) Table 8 summarizes the minimal inhibitory concentrations (MIC), as measured by standard agar-dilution assays, at which DOMM (free base) inhibits certain bacteria.

[4] = system: Pasteurella hemolytica; test: Standard agar-dilution MIC assay; assay type: cell-based; conditions: DOMM free base
Source text: as §2

[5] = system: Mycoplasma gallisepticum; test: Standard agar-dilution MIC assay; assay type: cell-based; conditions: Mycoplasmoides gallisepticum, DOMM free base
Source text: as §2

[6] = system: Mycoplasma hyorhinis; test: Standard agar-dilution MIC assay; assay type: cell-based; conditions: DOMM free base
Source text: as §2

[7] = system: Mycoplasma hyopneumoniae; test: Standard agar-dilution MIC assay; assay type: cell-based; conditions: Mesomycoplasma hyopneumoniae, DOMM free base
Source text: as §2

[8] = system: Streptococcus pyogenes C203; test: Standard agar-dilution MIC assay; assay type: cell-based; conditions: DOMM free base
Source text: as §2

[9] = system: Pasteurella multocida; test: Standard agar-dilution MIC assay; assay type: cell-based; conditions: DOMM free base
Source text: as §2

[10] = system: Streptococcus sp. (Group D) 282; test: Standard agar-dilution MIC assay; assay type: cell-based; conditions: DOMM free base
Source text: as §2

[11] = Solubility; assay type: physicochemical
[12] = Electrometric titration (pKa); assay type: physicochemical; conditions: 66% aqueous dimethylformamide
Source text: Electrometric titration of DOMM in 66% aqueous dimethylformamide indicates the presence of a titratable group with a pKa value of about 7.14.

[13] = system: Streptococcus pneumoniae Park I; test: Experimental infection in mice, ED50; assay type: in vivo; conditions: sc, subcutaneous, two doses, bacterial challenge (X LD50) = 41.2, read-out: Subcutaneous ED50 (effective dose to protect 50% of the test animals)
Experimental: (§3) The DOMM compounds have shown in vivo antimicrobial activity against experimental bacterial infections. When two doses of test compound were administered to mice in experimental infections, the activity observed was measured as an ED50 value [effective dose in mg/kg to protect 50% of the test animals: see Warren Wick, et al., J. Bacteriol. 81, 233-235 (1961)].

[14] = system: Streptococcus pyogenes C203; test: Experimental infection in mice, ED50; assay type: in vivo; conditions: sc, subcutaneous, two doses, bacterial challenge (X LD50) = 133, read-out: Subcutaneous ED50 (effective dose to protect 50% of the test animals)
Experimental: as §3

[15] = system: Staphylococcus aureus 3055; test: Experimental infection in mice, ED50; assay type: in vivo; conditions: sc, subcutaneous, two doses, bacterial challenge (X LD50) = 139, read-out: Subcutaneous ED50 (effective dose to protect 50% of the test animals)
Experimental: as §3

[16] = system: pathogenic bacteria, especially gram-positive bacteria and Mycoplasma species; test: Inhibition of growth of pathogenic organisms (general statement); assay type: cell-based
Source text: as §2

## O=C(Cc1cccs1)N[C@@H]1C(=O)N2C(C(=O)[O-])=C(C[n+]3ccccc3)CS[C@H]12 [Cephaloridine]
[1]
  Antibiotic sensitivity: +
[2]
  Antibiotic sensitivity: +

## O=C(N[C@H](CO)[C@H](O)c1ccc([N+](=O)[O-])cc1)C(Cl)Cl [Chloramphenicol]
[1]
  Antibiotic sensitivity: +
[2]
  Antibiotic sensitivity: +

## CCC1OC(=O)CC(O)C(C)C(OC2OC(C)C(OC3CC(C)(O)C(O)C(C)O3)C(N(C)C)C2O)C(CC=O)CC(C)C(=O)C=CC(C)=CC1COC1OC(C)C(O)C(O)C1O (centres unmarked) [DOMM, 2'"-O-demethylmacrocin]
[3]
  MIC: 0.25 µg/mL (≈ 0.282 µM)
[4]
  MIC: 50 µg/mL (≈ 56.3 µM)
[5]
  MIC: 0.78 µg/mL (≈ 0.878 µM)
[6]
  MIC: 3.12 µg/mL (≈ 3.51 µM)
[7]
  MIC: 0.78 µg/mL (≈ 0.878 µM)
[8]
  MIC: 0.25 µg/mL (≈ 0.282 µM)
[9]
  MIC: 12.5 µg/mL (≈ 14.1 µM)
[10]
  MIC: 4 µg/mL (≈ 4.5 µM)
[11]; acetone, methanol, ethanol, chloroform, dimethylformamide and dimethyl sulfoxide
  solubility in most polar organic solvents: soluble
[11]; water
  solubility in water: soluble
[12]
  pKa value: about 7.14
[13]
  ED50: 37.5 mg/kg
[14]
  ED50: 1.1 mg/kg
[15]
  ED50: 3.8 mg/kg
[16]
  growth inhibition / antibacterial activity (in words): especially active against grampositive microorganisms and Mycoplasma species

## CCC[C@@H]1C[C@@H](C(=O)N[C@@H]([C@H]2O[C@H](SC)[C@H](O)[C@@H](O)[C@H]2O)[C@@H](C)O)N(C)C1 [Lincomycin]
[1]
  Antibiotic sensitivity: -
[2]
  Antibiotic sensitivity: -

## [H]/N=C(/N)N[C@H]1[C@H](O)[C@@H](O)[C@H](O[C@@H]2O[C@@H](C)[C@](O)(C=O)[C@H]2O[C@@H]2O[C@@H](CO)[C@H](O)[C@@H](O)[C@@H]2NC)[C@@H](N/C(N)=N\[H])[C@@H]1O [Streptomycin]
[1]
  Antibiotic sensitivity: +
[2]
  Antibiotic sensitivity: +

## CN(C)C1C(=O)C(C(N)=O)=C(O)C2(O)C(=O)C3=C(O)c4c(O)cccc4C(C)(O)C3CC12 (centres unmarked) [Tetracycline]
[1]
  Antibiotic sensitivity: +
[2]
  Antibiotic sensitivity: +

## CN[C@H](CC(C)C)C(=O)N[C@H]1C(=O)N[C@@H](CC(N)=O)C(=O)N[C@H]2C(=O)N[C@H]3C(=O)N[C@H](C(=O)N[C@H](C(=O)O)c4cc(O)cc(O)c4-c4cc3ccc4O)[C@H](O)c3ccc(c(Cl)c3)Oc3cc2cc(c3O[C@@H]2O[C@H](CO)[C@@H](O)[C@H](O)[C@H]2O[C@H]2C[C@](C)(N)[C@H](O)[C@H](C)O2)Oc2ccc(cc2Cl)[C@H]1O [Vancomycin]
[1]
  Antibiotic sensitivity: +
[2]
  Antibiotic sensitivity: +

## CCC1OC(=O)CC(O)C(C)C(OC2OC(C)C(OC3CC(C)(O)C(O)C(C)O3)C(N(C)C)C2O)C(CCO)CC(C)C(=O)C=CC(C)=CC1COC1OC(C)C(O)C(O)C1O (centres unmarked) [dihydro-DOMM, 20-dihydro-2'"-O-demethylmacrocin]
[16]
  growth inhibition / antibacterial activity (in words): especially active against grampositive microorganisms and Mycoplasma species

## Polymyxin B
[1]
  Antibiotic sensitivity: +
